According to patent US11028093B2, “4,6-substituted-pyrazolo[1,5-a]pyrazines as janus kinase inhibitors” (Array BioPharma Inc., priority 2014, dated 2021):
Where two headings read alike, the source gives them in different places.

Legend:
Assay type in all cases: biochemical
[1] = molecular target: Human Tyk2 kinase domain (Homo sapiens (Human), UniProt P29597); assay: Tyk2 Inhibition Assay (Omnia kinase fluorescence peptide substrate assay, 1 mM ATP)
Source text: (§1) The assays described in Examples A, B, C and D for the determination of Tyk2, JAK1, JAK2 and JAK3 kinase activity, respectively, utilized the Omnia® Kinase fluorescence peptide substrate-based technology (Invitrogen). The specific components of the assay mixture are described in Examples A, B, C and D. In these assays, Mg^2+ is chelated upon phosphorylation of the Omnia peptide by the kinase to form a bridge between the chelation-enhanced fluorophore Sox and the phosphate, resulting in an increase in fluorescence emission at 485 nm when excited at […]. The reactions were therefore read at excitation 360 nm and emission was measured at 485 nm every 50 seconds for 45 minutes using a PerkinElmer EnVision Multilabel Plate Reader.
(§2) The final buffer conditions for Tyk2, JAK1, JAK2, and JAK3 assays were as follows: 25 mM HEPES, pH 7.4, 10 mM MgCl2, 0.01% Triton X-100 and 1 mM DTT.
(§3) Two-μL aliquots of these were transferred to a fresh plate for a ten-fold intermediate dilution with assay buffer. Five-μL aliquots of the diluted compounds were then transferred to 20-μL of assay mixtures described in Examples A, B, C and D for a final concentration of DMSO of 2%. […] For each plate, percent of control (POC) values were calculated for each well according to the following equation:
(§4) where Xmax=Average Uninhibited Controls • Xmin=Average Background IC50's were estimated from the POC's using a standard 4-parameter logistic model:
(§5) where A=Minimum Y (Bottom Asymptote) • B=Maximum Y (Top Asymptote) • C=EC50 • D=Slope Factor • X=Compound Concentration (nM) • Y=POC
(§6) The IC50 is defined as the concentration of inhibitor at which the POC equals 50 for the fitted curve.
Compounds of Formula I were screened for their ability to inhibit Tyk2 using the general enzyme inhibition assay method, in which the assay mixture contained 1 mM ATP, 8 μM Omnia® Y12 peptide (Catalog # IVGN KPZ3121C; Invitrogen Corporation, Carlsbad, Calif.) and 1 nM Tyk2 in a total volume of 25 μL. […]

[2] = molecular target: JAK1 (Homo sapiens (Human), UniProt P23458); assay: JAK1 Inhibition Assay (Omnia kinase fluorescence peptide substrate assay, 1 mM ATP)
Chain of JAK1 (P23458 866-1154): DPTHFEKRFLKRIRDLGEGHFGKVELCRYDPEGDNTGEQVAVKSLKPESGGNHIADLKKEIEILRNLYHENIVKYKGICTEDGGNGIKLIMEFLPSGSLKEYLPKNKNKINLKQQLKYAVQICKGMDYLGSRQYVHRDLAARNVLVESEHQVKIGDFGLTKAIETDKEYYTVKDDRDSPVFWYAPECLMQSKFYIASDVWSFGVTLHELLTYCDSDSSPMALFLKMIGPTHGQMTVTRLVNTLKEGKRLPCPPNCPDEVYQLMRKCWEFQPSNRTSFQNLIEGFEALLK
Source text: as §1, §2
as §3, with “equation: […]” for “equation:”

[3] = molecular target: JAK2 (Homo sapiens (Human), UniProt O60674); assay: JAK2 Inhibition Assay (Omnia kinase fluorescence peptide substrate assay, 1 mM ATP)
Chain of JAK2 (O60674 808-1132): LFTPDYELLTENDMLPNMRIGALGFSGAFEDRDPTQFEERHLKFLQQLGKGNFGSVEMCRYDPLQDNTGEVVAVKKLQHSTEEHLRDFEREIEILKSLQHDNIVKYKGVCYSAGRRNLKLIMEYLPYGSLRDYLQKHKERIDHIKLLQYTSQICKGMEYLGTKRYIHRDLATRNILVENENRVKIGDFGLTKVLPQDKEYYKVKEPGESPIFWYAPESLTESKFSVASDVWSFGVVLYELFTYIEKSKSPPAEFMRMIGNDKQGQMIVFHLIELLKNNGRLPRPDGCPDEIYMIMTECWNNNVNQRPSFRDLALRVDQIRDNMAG
Source text: as §1, §2, §3, §4, §5, §6
(§7) Compounds of Formula I were screened for their ability to inhibit JAK2 using the general enzyme inhibition assay method, in which the assay mixture contained 1 mM ATP, 10 μM Omnia® Y7 peptide (Catalog # IVGN KNZ3071C, Invitrogen Corporation, Carlsbad, Calif.) and 4 nM JAK2 in a total volume of 25 μL. JAK2 was purchased from Invitrogen Corporation, Carlsbad, Calif. (catalog # IVGN PV4288).

[4] = molecular target: JAK3 (Homo sapiens (Human), UniProt P52333); assay: JAK3 Inhibition Assay (Omnia kinase fluorescence peptide substrate assay, 1 mM ATP)
Chain of JAK3 (P52333 781-1124): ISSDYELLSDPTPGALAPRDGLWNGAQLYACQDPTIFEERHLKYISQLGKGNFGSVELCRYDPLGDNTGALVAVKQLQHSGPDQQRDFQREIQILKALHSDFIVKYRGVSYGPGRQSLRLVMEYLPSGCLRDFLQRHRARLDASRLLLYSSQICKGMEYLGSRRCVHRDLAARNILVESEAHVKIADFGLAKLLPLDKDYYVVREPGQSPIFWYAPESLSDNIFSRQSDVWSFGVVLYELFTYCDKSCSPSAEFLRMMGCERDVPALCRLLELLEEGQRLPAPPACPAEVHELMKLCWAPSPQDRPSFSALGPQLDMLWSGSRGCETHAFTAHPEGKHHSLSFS
Source text: as §1, §2, §3, §4, §5, §6
as §7, with “JAK3” for “JAK2”, “2” for “4”, “PV4080).” for “PV4288).”

[5] = read-out: JAK2 Enzyme IC50 1 mM ATP, 1 mM ATP, averaged IC50 ranges
[6] = read-out: TYK2 Enzyme IC50 1 mM ATP, 1 mM ATP, averaged IC50 ranges

Chain of Human Tyk2 kinase domain (P29597 886-1187): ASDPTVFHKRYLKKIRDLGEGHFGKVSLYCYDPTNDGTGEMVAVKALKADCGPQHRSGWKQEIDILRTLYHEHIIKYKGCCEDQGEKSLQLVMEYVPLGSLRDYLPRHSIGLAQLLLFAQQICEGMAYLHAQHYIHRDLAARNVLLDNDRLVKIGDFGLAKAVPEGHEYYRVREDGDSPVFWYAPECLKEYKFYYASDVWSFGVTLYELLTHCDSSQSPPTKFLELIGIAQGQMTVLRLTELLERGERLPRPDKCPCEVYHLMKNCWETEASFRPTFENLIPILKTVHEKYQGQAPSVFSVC

| Compound | IC50 [4] | IC50 [3, 5] | other results |
| --- | --- | --- | --- |
| CC[C@@H](CC1CC1)n1cc(-c2nc(-c3cnn(C[C@@H](O)CO)c3)cn3nccc23)cn1 [Example 205, (R)-3-(4-(4-(1-((S)-1-cyclopropylbutan-2-yl)-1H-pyrazol-4-yl)pyrazolo[1,5-a]pyrazin-6-yl)-1H-pyrazol-1-yl)propane-1,2-diol] | 1000 to 10000 nM | – | IC50 [1]: 10 to 100 nM; IC50 [2]: 100 to 1000 nM; IC50 [3]: 10 to 100 nM |
| CCC(CC)n1cc(-c2nc(-c3cnn([C@H]4C[C@@](C)(O)C4)c3)cn3nccc23)cn1 [Example 162, (1s,3 s)-1-methyl-3-(4-(4-(1-(pentan-3-yl)-1H-pyrazol-4-yl)pyrazolo[1,5-a]pyrazin-6-yl)-1H-pyrazol-1-yl)cyclobutanol] | 1000 to 10000 nM | – | – |
| CCC(CC)n1cc(-c2nc(-c3cnn(C4CN(S(C)(=O)=O)C4)c3)cn3nccc23)cn1 [Example 37, 6-(1-(1-(methylsulfonyl)azetidin-3-yl)-1H-pyrazol-4-yl)-4-(1-(pentan-3-yl)-1H-pyrazol-4-yl)pyrazolo[1,5-a]pyrazine] | – | < 10 nM | – |
| CCC(CC)n1cc(-c2nc(-c3cnn([C@H]4CC[C@H](O)CC4)c3)cn3nccc23)cn1 [Example 118, trans-4-(4-(4-(1-(pentan-3-yl)-1H-pyrazol-4-yl)pyrazolo[1,5-a]pyrazin-6-yl)-1H-pyrazol-1-yl)cyclohexanol] | 1000 to 10000 nM | – | – |
| (R)-3-(4-(4-(1-((S)-2,2-dimethylcyclopentyl)-1H-pyrazol-4-yl)pyrazolo[1,5-a]pyrazin-6-yl)-1H-pyrazol-1-yl)propane-1,2-diol [Example 95] | – | 1000 to 10000 nM | IC50 [1, 6]: 1000 to 10000 nM |
| CCC1(n2cc(-c3nc(-c4cnn(C)c4)cn4nccc34)cn2)CN(S(=O)(=O)C(F)(F)F)C1 [Example 48, 4-(1-(3-ethyl-1-((trifluoromethyl)sulfonyl)azetidin-3-yl)-1H-pyrazol-4-yl)-6-(1-methyl-1H-pyrazol-4-yl)pyrazolo[1,5-a]pyrazine] | – | < 10 nM | IC50 [1, 6]: < 10 nM |
| CCC(CC)n1cc(-c2nc(-c3cnn([C@H]4CC[C@@H](O)CC4)c3)cn3nccc23)cn1 [Example 121, cis-4-(4-(4-(1-(pentan-3-yl)-1H-pyrazol-4-yl)pyrazolo[1,5-a]pyrazin-6-yl)-1H-pyrazol-1-yl)cyclohexanol] | 1000 to 10000 nM | – | – |
| (1s,3s)-3-(4-(4-(1-(pentan- 3-yl)-1H-pyrazol-4- yl)pyrazolo[1,5-a]pyrazin- 6-yl)-1H-pyrazol-1-yl) cyclobutanecarboxamide [Example 168] | – | 10 to 100 nM | IC50 ([2]; read-out: JAK1 Enzyme IC50 1 mM ATP, 1 mM ATP, averaged IC50 ranges): 1000 to 10000 nM; IC50 ([4]; read-out: JAK3 Enzyme IC50 1 mM ATP, 1 mM ATP, averaged IC50 ranges): 1000 to 10000 nM |
